# Literature values, collected in patent US20040156894A1, “Use of edible acids in fast-dispersing pharmaceutical solid dosage forms” (priority 2003, published 2004).
row,water solubility [µg/mL],SMILES
1,< 1000,CN1C(C(=O)Nc2ccccn2)=C(O)c2ccccc2S1(=O)=O [piroxicam]
2,4,CS(=O)(=O)c1ccc(C2=C(c3ccccc3)C(=O)OC2)cc1 [rofecoxib]
